Where two headings read alike, the source gives them in different places.
Assays:
Format in all cases: in vivo
Lolium rigidum (LOLRI) [1] = test: Pre-emergence herbicidal action against LOLRI
Description: (§1) Seeds of monocotyledonous and dicotyledonous weed plants and crop plants are placed in plastic or organic planting pots and covered with soil. The compounds of the invention, formulated in the form of wettable powders (WP) or as emulsion concentrates (EC), are then applied to the surface of the covering soil as aqueous suspension or emulsion with addition of 0.5% additive at a water application rate equivalent to 600 l/ha. After the treatment, the pots are placed in a greenhouse and kept under good growth conditions for the trial plants. After about 3 weeks, the effect of the preparations is scored visually in comparison with untreated controls as percentages. For example, 100% activity=the plants have died, 0% activity=like control plants.
(§2) Tables A1 to A13 below show the effects of selected compounds of the general formula (I) on various harmful plants and at an application rate corresponding to 320 g/ha or lower, which were obtained by the experimental procedure mentioned above. The appendices “a”, “b” and “c” give differentiation by dosage used with otherwise the same harmful plants tested.

[2] = test system: Pharbitis purpurea (PHBPU); test: Post-emergence herbicidal action against PHBPU
Procedure: (§3) Seeds of monocotyledonous and dicotyledonous weeds and crop plants are placed in sandy loam in plastic or organic planting pots, covered with soil and cultivated in a greenhouse under controlled growth conditions. 2 to 3 weeks after sowing, the test plants are treated at the one-leaf stage. The compounds of the invention, formulated in the form of wettable powders (WP) or as emulsion concentrates (EC), are then sprayed onto the green parts of the plants as aqueous suspension or emulsion with addition of 0.5% additive at a water application rate of 600 l/ha (converted). After the test plants have been kept in the greenhouse under optimum growth conditions for about 3 weeks, the activity of the preparations is rated visually in comparison to untreated controls. For example, 100% activity=the plants have died, 0% activity=like control plants.
(§4) Tables B1 to B13 below show the effects of selected compounds of the general formula (I) according to Table 1 on various harmful plants and at an application rate corresponding to 320 g/ha or lower, which were obtained by the experimental procedure mentioned above. The appendices “a”, “b” and “c” give differentiation by dosage used with otherwise the same harmful plants tested.

Oryza sativa (ORYSA) = conditions: crop plant compatibility, effect in comparison to untreated controls
Procedure: as §3
(§5) The observed effects on selected crop plants are reported here in comparison to the untreated controls (values in %). The appendices “a”, “b” and “c” give differentiation by dosage used with otherwise the same crop plants tested.

Zea mays (ZEAMX) = conditions: crop plant compatibility, 80 g/ha, effect vs untreated controls
Procedure: as §3, §5

[3] = test system: Polygonum convolvulus (POLCO); test: Post-emergence herbicidal action against POLCO
Procedure: as §3, §4

Setaria viridis (SETVI) [4] = test: Pre-emergence herbicidal action against SETVI
Description: as §1, §2

[5] = test system: Matricaria inodora (MATIN); test: Pre-emergence herbicidal action against MATIN; conditions: dosage 320 g/ha
Description: as §1, §2

Setaria viridis (SETVI) [6] = test: Post-emergence herbicidal action against SETVI
Procedure: as §3, §4

Viola tricolor (VIOTR) [7] = test: Pre-emergence herbicidal action against VIOTR
Description: as §1, §2

[8] = test system: Echinochloa crus-galli (ECHCG); test: Pre-emergence herbicidal action against ECHCG
Description: as §1, §2

[9] = test system: Pharbitis purpurea (PHBPU); test: Pre-emergence herbicidal action against PHBPU; conditions: dosage 320 g/ha
Description: as §1, §2

[10] = test system: Echinochloa crus-galli (ECHCG); test: Post-emergence herbicidal action against ECHCG
Procedure: as §3, §4

[11] = test system: Amaranthus retroflexus (AMARE); test: Post-emergence herbicidal action against AMARE
Procedure: as §3, §4

[12] = test system: Alopecurus myosuroides (ALOMY); test: Pre-emergence herbicidal action against ALOMY; conditions: scored visually after about 3 weeks, 100% = plants have died
Description: as §1, §2

[13] = test system: Amaranthus retroflexus (AMARE); test: Pre-emergence herbicidal action against AMARE; conditions: visual scoring after about 3 weeks vs untreated controls
Description: as §1, §2

Viola tricolor (VIOTR) [14] = test: Post-emergence herbicidal action against VIOTR
Procedure: as §3, §4

[15] = test system: Matricaria inodora (MATIN); test: Post-emergence herbicidal action against MATIN; conditions: dosage 320 g/ha
Procedure: as §3, §4

Avena fatua (AVEFA) [16] = test: Post-emergence herbicidal action against AVEFA; conditions: visual rating about 3 weeks after treatment
Procedure: as §3, §4

[17] = test system: Alopecurus myosuroides (ALOMY); test: Post-emergence herbicidal action against ALOMY; conditions: 320 g/ha, visual rating about 3 weeks after treatment vs untreated controls (100% = plants have died, 0% = like control plants)
Procedure: as §3, §4

Avena fatua (AVEFA) [18] = test: Pre-emergence herbicidal action against AVEFA; conditions: 320 g/ha, visual scoring after about 3 weeks vs untreated controls
Description: as §1, §2

Lolium rigidum (LOLRI) [19] = test: Post-emergence herbicidal action against LOLRI
Procedure: as §3, §4

[20] = test system: Verconica persica (VERPE); test: Pre-emergence herbicidal action against VERPE
Description: as §1, §2

[21] = test system: Verconica persica (VERPE); test: Post-emergence herbicidal action against VERPE; conditions: 320 g/ha, VERPE
Procedure: as §3, §4

[22] = test system: Abutilon theophrasti (ABUTH); test: Post-emergence herbicidal action against ABUTH; conditions: 320 g/ha, visual rating about 3 weeks after treatment vs untreated controls (100% = plants have died, 0% = like control plants)
Procedure: as §3, §4

[23] = test system: Polygonum convolvulus (POLCO); test: Pre-emergence herbicidal action against POLCO
Description: as §1, §2

[24] = 80 g/ha, visual rating about 3 weeks after treatment vs untreated controls (100% = plants have died, 0% = like control plants)
[25] = 320 g/ha, visual rating about 3 weeks after treatment

O=C(O)CSc1nn(-c2ccccn2)c(-c2cncc(F)c2)c1C1CC1 [Example I-153]
10%: Post-emergence action against ZEAMX in % (Zea mays (ZEAMX))
90%: Post-emergence action against PHBPU in % ([2]; dosage 320 g/ha) | Pre-emergence action against SETVI in % (Setaria viridis (SETVI) [4]; dosage 320 g/ha) | Pre-emergence action against VIOTR in % (Viola tricolor (VIOTR) [7]; dosage 80 g/ha) | Post-emergence action against ECHCG in % ([10]; dosage 320 g/ha) | Post-emergence action against AMARE in % [11, 24] | Post-emergence action against AMARE in % [11, 25] | Pre-emergence action against ALOMY ([12]; 320 g/ha) | Post-emergence action against AVEFA in % (Avena fatua (AVEFA) [16]; 320 g/ha)
100%: Pre-emergence action against VIOTR in % (Viola tricolor (VIOTR) [7]; 320 g/ha, Viola tricolor) | Pre-emergence action against ECHCG in % ([8]; dosage 320 g/ha) | Pre-emergence action against AMARE in % ([13]; 320 g/ha)
80%: Pre-emergence action against LOLRI in % (Lolium rigidum (LOLRI) [1]; dosage 320 g/ha) | Post-emergence action against PHBPU in % ([2]; dosage 80 g/ha) | Post-emergence action against POLCO in % ([3]; dosage 320 g/ha) | Pre-emergence action against MATIN in % [5] | Post-emergence action against SETVI in % (Setaria viridis (SETVI) [6]; dosage 320 g/ha) | Pre-emergence action against ECHCG in % ([8]; dosage 80 g/ha) | Pre-emergence action against PHBPU in % [9] | Post-emergence action against ECHCG in % ([10]; dosage 80 g/ha) | Post-emergence action against VIOTR in % (Viola tricolor (VIOTR) [14]; 320 g/ha) | Post-emergence action against MATIN in % [15] | Post-emergence action against AVEFA in % (Avena fatua (AVEFA) [16]; 80 g/ha) | Post-emergence action against ALOMY in % [17]
0%: Post-emergence action against ORYSA in % (Oryza sativa (ORYSA); 80 g/ha)

CC(NC(=O)[C@@H](C)Oc1nn(-c2ccccn2)c(-c2ccc(F)nc2)c1Cl)C(=O)O (stereo partly drawn) [Example I-350]
90%: Post-emergence action against POLCO in % ([3]; dosage 320 g/ha) | Post-emergence action against LOLRI in % (Lolium rigidum (LOLRI) [19]; dosage 320 g/ha) | Pre-emergence action against MATIN in % [5] | Pre-emergence action against VERPE in % ([20]; dosage 80 g/ha) | Post-emergence action against SETVI in % (Setaria viridis (SETVI) [6]; dosage 320 g/ha) | Post-emergence action against ECHCG in % ([10]; dosage 320 g/ha) | Post-emergence action against AMARE in % [11, 24] | Post-emergence action against AMARE in % [11, 25] | Post-emergence action against VERPE in % [21] | Post-emergence action against ABUTH in % [22] | Post-emergence action against VIOTR in % (Viola tricolor (VIOTR) [14]; 80 g/ha) | Post-emergence action against VIOTR in % (Viola tricolor (VIOTR) [14]; 320 g/ha) | Post-emergence action against AVEFA in % (Avena fatua (AVEFA) [16]; 80 g/ha) | Post-emergence action against AVEFA in % (Avena fatua (AVEFA) [16]; 320 g/ha) | Pre-emergence action against POLCO in % ([23]; dosage 80 g/ha) | Pre-emergence action against POLCO in % ([23]; dosage 320 g/ha) | Post-emergence action against ALOMY in % [17]
100%: Pre-emergence action against LOLRI in % (Lolium rigidum (LOLRI) [1]; dosage 80 g/ha) | Pre-emergence action against LOLRI in % (Lolium rigidum (LOLRI) [1]; dosage 320 g/ha) | Pre-emergence action against SETVI in % (Setaria viridis (SETVI) [4]; dosage 80 g/ha) | Pre-emergence action against SETVI in % (Setaria viridis (SETVI) [4]; dosage 320 g/ha) | Pre-emergence action against AVEFA in % (Avena fatua (AVEFA) [18]) | Pre-emergence action against VERPE in % ([20]; dosage 320 g/ha) | Pre-emergence action against VIOTR in % (Viola tricolor (VIOTR) [7]; 320 g/ha, Viola tricolor) | Pre-emergence action against VIOTR in % (Viola tricolor (VIOTR) [7]; dosage 80 g/ha) | Pre-emergence action against ECHCG in % ([8]; dosage 80 g/ha) | Pre-emergence action against ECHCG in % ([8]; dosage 320 g/ha) | Pre-emergence action against ALOMY ([12]; 80 g/ha) | Pre-emergence action against ALOMY ([12]; 320 g/ha) | Pre-emergence action against AMARE in % ([13]; 80 g/ha) | Pre-emergence action against AMARE in % ([13]; 320 g/ha)
10%: Post-emergence action against ORYSA in % (Oryza sativa (ORYSA); 320 g/ha)
80%: Post-emergence action against POLCO in % ([3]; dosage 80 g/ha) | Post-emergence action against LOLRI in % (Lolium rigidum (LOLRI) [19]; dosage 80 g/ha) | Post-emergence action against SETVI in % (Setaria viridis (SETVI) [6]; dosage 80 g/ha) | Pre-emergence action against PHBPU in % [9] | Post-emergence action against ECHCG in % ([10]; dosage 80 g/ha)
0%: Post-emergence action against ORYSA in % (Oryza sativa (ORYSA); 80 g/ha)
